Data: PMC9579956 (RSC Medicinal Chemistry, 2022)

biological target: Mycobacterium thermoresistible (Mtr) LpqY (Mycolicibacterium thermoresistibile, UniProt G7CES0); format: binding; details: compound 100 μM, LpqY 500 nM, 10% DMSO, duplicate
Sequence (G7CES0 29-471): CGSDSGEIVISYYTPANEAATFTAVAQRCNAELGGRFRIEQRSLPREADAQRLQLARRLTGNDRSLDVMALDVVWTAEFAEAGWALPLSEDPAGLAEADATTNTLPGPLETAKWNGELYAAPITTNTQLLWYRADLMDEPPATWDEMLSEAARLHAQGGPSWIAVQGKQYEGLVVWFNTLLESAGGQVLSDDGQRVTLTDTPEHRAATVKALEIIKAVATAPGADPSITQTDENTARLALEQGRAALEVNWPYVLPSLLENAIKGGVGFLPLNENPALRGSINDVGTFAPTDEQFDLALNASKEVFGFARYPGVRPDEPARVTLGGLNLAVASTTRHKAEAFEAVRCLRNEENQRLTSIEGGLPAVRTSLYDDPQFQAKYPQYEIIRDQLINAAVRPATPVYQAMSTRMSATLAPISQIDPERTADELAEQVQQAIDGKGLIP

| Structure (SMILES) | Screen signal/noise ratio (MST S/N) |
| --- | --- |
| COc1cc(C2=NCCN2)ccc1-c1cn(-c2cccc(C3=NCCN3)c2)nn1 [MMV688407, 4-[4-(4,5-dihydro-1H-imidazol-2-yl)-2-methoxyphenyl]-1-[3-(4,5-dihydro-1H-imidazol-2-yl)phenyl]triazole] | 8.0 |

same assay, conditions: single dose MST screen against LpqY

| Structure (SMILES) | Pathogen Box screen signal/noise ratio |
| --- | --- |
| O=C(NCCc1ccn(-c2ccccc2)n1)C1CCCCC1 [MMV688795] | 0.0455 |
| c1ccc(Oc2ccc(-c3cc(N4CCOCC4)[nH]n3)cc2)cc1 [MMV045105] | 1.1 |
| COc1cc(C(F)(F)F)nc2ccc(C)c(N)c12 [MMV047015] | 2.0 |
| COc1cc(OC)cc(C(=O)NCC2Cc3cc(Cl)cc(-c4ccncc4)c3O2)c1 (stereo not drawn) [MMV007471] | 0.2 |
| CCOc1ccccc1NC(C)C(=O)Nc1cc(C(F)(F)F)ccc1N1CCOCC1 (stereo not drawn) [MMV407834] | 2.3 |
| CC(C(=O)N1CCCC1)N1CCN(S(=O)(=O)c2ccc(C(C)(C)C)cc2)CC1 (stereo not drawn) [MMV020291] | 1.8 |
| c1ccc(-c2cc(N3CCCCC3)c3ccccc3n2)nc1 [MMV560185] | 0.7 |
| CC(=O)OC[C@H]1O[C@@H]([S-])[C@H](OC(C)=O)[C@@H](OC(C)=O)[C@@H]1OC(C)=O.CC[PH+](CC)CC.[Au] [MMV688978] | 0.85 |
| N=C(N)c1ccc(OCCCCCOc2ccc(C(=N)N)cc2)cc1 [MMV000062] | 0.3 |
| N#Cc1nc(-c2ccccc2F)oc1NCCc1ccccc1 [MMV676384] | 1.0 |
| CN(C(=O)c1cc2c(-c3cncnc3)cccc2[nH]1)c1ccccc1 [MMV024443] | -0.0357 |
| CNC(=O)c1cc(S(=O)(=O)N2CCN(c3ccccn3)CC2)cs1 [MMV020136] | 0.5 |
| Cc1noc(C)c1C(=O)N1CCCC(c2[nH]c3c(C)cccc3c2-c2ccncc2)C1 (stereo not drawn) [MMV020623] | 2.5 |
| CCOC(=O)c1cc(-c2csc(Nc3c(C)cc(C)cc3C)n2)on1 [MMV676461] | 2.4 |
| CC(Oc1cccc(Cl)c1)C(=O)Nc1ccc2oc(-c3ccncc3)nc2c1 (stereo not drawn) [MMV688472] | 0.7 |
| Cc1cccc(C(=O)Nc2ccnc(N(C)C3CCN(CC(C)C)CC3)c2)c1 [MMV024829] | -0.0167 |
| Cc1nc(-c2cccc(NCc3ccccc3)c2)[nH]c1C [MMV023227] | 1.4 |
| C[C@H](C(N)=O)N1CCCC[C@H]1c1ccc(OCc2cccc(F)c2)cc1 [MMV676269] | 0.212 |
| CCOC(=O)c1c(NC(=O)c2c(F)c(F)c(F)c(F)c2F)sc(C(N)=O)c1C [MMV153413] | 1.3 |

| Structure (SMILES) | Pathogen Box screen signal/noise ratio |
| --- | --- |
| CO/C=C(/C(=O)OC)c1ccccc1Oc1cc(Oc2ccccc2C#N)ncn1 [MMV021057] | 0.6 |
| Cc1cc(Cl)ccc1NC(=O)CCc1ccc(S(=O)(=O)NCC(C)C)cc1 [MMV161996] | 1.2 |
| COc1ccc(CCN2CCC(NCc3cccc(N(C)C)c3)CC2)cc1 [MMV011511] | 0.8 |
| O=C(NC1CC1)c1ccc(CSCc2ccccc2Cl)o1 [MMV007803] | 0.148 |
| CCCCN(CCCC)c1c(C#N)cc(S(=O)(=O)Nc2ccccc2)cc1C#N [MMV688467] | 0.7 |
| COc1cc(C2=NCCN2)ccc1-c1cn(-c2cccc(C3=NCCN3)c2)nn1 [MMV688407, 4-[4-(4,5-dihydro-1H-imidazol-2-yl)-2-methoxyphenyl]-1-[3-(4,5-dihydro-1H-imidazol-2-yl)phenyl]triazole] | 8.0 |
| Nc1nc(N)c2c3c(sc2n1)CN(Cc1ccccc1)CC3 [MMV688345] | 2.8 |
| COc1ccc(-c2cc(NC(=O)c3ccc(F)cc3Cl)ccc2OC)cc1 [MMV676526] | 0.556 |
| COc1ccc(-c2cncc3ccc(C(=O)NCCCn4ccnc4)nc23)cc1 [MMV020670] | 2.7 |
| CC(=O)NCC1CN(c2ccc(-c3ccc(CO)cc3)c(F)c2)C(=O)O1 (stereo not drawn) [MMV688508] | 0.8 |
| CNC1C(OC2C(OC3C(O)C(O)C(NC(=N)N)C(O)C3NC(=N)N)OC(C)C2(O)C=O)OC(CO)C(O)C1O (stereo not drawn) [MMV688994] | 0.56 |
| O=[N+]([O-])c1cn2c(n1)OC[C@@H](OCc1ccc(OC(F)(F)F)cc1)C2 [MMV688755] | 0.4 |
| O=C(Nc1ccccc1-c1nc2c(C(=O)O)cccc2o1)c1ccccc1 [MMV676162] | 0.9 |
| O=C(Nc1nnc(-c2ccc(Cl)cc2)o1)c1cccc(C(F)(F)F)c1 [MMV102872] | 0.75 |
| Cc1[nH]c2cc(F)cc(F)c2c(=O)c1-c1ccc(Oc2ccc(OC(F)(F)F)cc2)cc1 [MMV671636] | 0.545 |
| COc1cc(CN2CCC3(C=Cc4ccccc43)CC2)cc2c1OCO2 [MMV688941] | 0.5 |
| CCN(CC)S(=O)(=O)c1ccc(Cl)c(C(=O)Nc2ccc3nc(C)sc3c2)c1 [MMV019721] | 1.3 |
| Cn1ccnc1CNCCS(=O)(=O)c1cccc(Nc2ccc(-c3cccc(F)c3)cn2)c1 [MMV688466] | 0.0 |
| c1ccc(-c2[nH]c3ccccc3c2C(c2ccccn2)N2CCCC2)cc1 (stereo not drawn) [MMV688762] | 0.9 |

| Structure (SMILES) | Pathogen Box screen signal/noise ratio |
| --- | --- |
| O=C(COc1cccc(F)c1)Nc1nc(-c2ccccn2)cs1 [MMV676409] | 0.449 |
| CC(Oc1ccccc1)C(=O)Nc1nc(-c2ccccn2)cs1 (stereo not drawn) [MMV676411] | 0.0833 |
| Cc1ccc(-c2nc(CN(Cc3ccccn3)C(C)C)cs2)o1 [MMV1088520] | 0.0 |
| O=C(C1CCN(c2nnc(-n3cccc3)s2)CC1)N1CCC(Cc2ccccc2)CC1 [MMV676478] | 0.661 |
| NCCN(C(=O)c1ccc(Cl)cc1Cl)c1ccc(OCc2ccc(Cl)cc2)cc1 [MMV688371] | 1.7 |
| COc1ccc(-c2cnc3ccc(NCc4ccc(S(N)(=O)=O)cc4)nn23)cn1 [MMV010545] | 0.463 |
| CCCn1nnc(NC(=O)COc2ccc(C3CCCCC3)cc2)n1 [MMV676597] | 0.551 |
| O=C([C@@H](c1ccc(Cl)cc1)c1cccnc1)N1CCN(c2ccc(C(F)(F)F)cc2)CC1 [MMV689244] | 1.8 |
| CCCS(=O)(=O)N1CCC(CO)(Cc2ccccc2C(F)(F)F)CC1 [MMV001059] | 0.0926 |
| CN1CCN(S(=O)(=O)c2ccc(-c3ccc4c(Nc5ncc(Cl)cn5)ccnc4c3)cc2)CC1 [MMV688283] | 1.8 |
| Nc1ncnc2c1c(Cc1cccc3ccccc13)nn2CC1CCNCC1 [MMV676182] | 0.0 |
| Cc1cccc(Cn2ccc(NC(=O)c3ccc4c(c3)OCO4)n2)c1 [MMV676386] | 2.9 |
| CN1CCN(c2nccc3[nH]c(-c4cccc(F)c4)cc23)CC1 [MMV393144] | 1.4 |
| Cc1cc(OCC(=O)Nc2ccc(C(C)C)cc2)n(C)c(=O)c1C#N [MMV1198433] | 1.0 |
| CC(C)N=c1cc2n(-c3ccc(Cl)cc3)c3ccccc3nc-2cc1Nc1ccc(Cl)cc1 [MMV687800] | 0.6 |
| c1ccc(-c2nc(NC3CCCCC3)cc(C3CC3)n2)nc1 [MMV021013] | 0.0694 |
| Nc1ncnc2c1c(-c1cnc3ccccc3c1)nn2CC1CCNCC1 [MMV688411] | 2.1 |
| O=C(c1ccc(F)cc1)N(CCNc1ccccc1)c1ccccc1 [MMV676204] | 0.644 |
